Test results taken from patent US8841341B2, “Pharmaceutical composition effective against biofilms” (Helmholtz-Zentrum fuer Infektionsforschung GmbH, priority 2007, dated 2014).
Entries after “also recorded” stand apart in the source; their conditions may differ. Like-named read-outs stand apart in the source and are kept apart here.

Tests used:
Format in all cases: cell-based
[1] = test system: E. coli; assay: Antibiotic activity against E. coli
[2] = test system: E. coli tolC; assay: Antibiotic activity against E. coli tolC in vitro; conditions: E. coli tolC has an impaired cell wall
[3] = test system: Streptococcus mutans wild-type strain; assay: Inhibition of biofilm formation in in vitro culture (live/dead BacLight staining, microtiter plate); conditions: for inhibition at 0.025 µg/mL: Carolacton 0.025 μg/mL; for inhibition at 0.25 µg/mL: Carolacton 0.25 μg/mL; for inhibition at 2.5 µg/mL: Carolacton 2.5 μg/mL; for inhibition at 50 µg/mL: Carolacton 50 μg/mL
Procedure: (§1) Using Streptococcus mutans as a model organism that generates biofilms, overnight cultures of Streptococcus mutans in THB medium (Todd Hewitt Broth, available from Bacto) were diluted 1:100 into fresh THB medium containing 0.5% wt/vol sucrose. For anaerobic growth, medium was flushed with nitrogen before use. Aliquots of the diluted culture (95 μL) of Example 1 were distributed into the wells of a 96-well polystyrene flat bottom microtiter plate, containing 5 μL of different concentrations of test compound or alternatively, 5 μL methanol as a control. Microtiter plates were incubated under aerobic and an anaerobic conditions, respectively, at 37° C. for approximately 24 hours. For non-biofilm forming growth, e.g. planctonic growth, cells were grown in THB without the additional sucrose under otherwise identical conditions.
Bacterial growth was monitored in the microtiter plate by optical density readings at 620 nm. Quantitative bio film formation was determined using the live/dead bacLight bacterial viability staining kit (available under catalogue number L13152 from Molecular Probes, Eugene, Oreg., USA). The kit incorporates two nucleic acid stains that differ in spectral characteristics and their ability to penetrate bacterial cell membranes. When used alone, the green fluorescing stain Cyto9 generally labels all bacteria in the population, whereas the red fluorescing stain propidium-iodide only penetrates bacteria having damaged membranes, causing a reduction in the Cyto9 stain fluorescence when both dyes are present.
For staining, the culture medium was removed from the microtiter plate wells and cells were washed once with 100 μL fresh THB medium to remove planctonic growing and loosely bound cells. According to all the manufacturer's instructions, the adherent bacteria, regarded as the bio film, were then stained for 15 min in the dark at room temperature, using 100 μL of a 1:1 mixture of the two dye components. Fluorescence was measured in a microtiter plate reader (Wallac Victor 1420 multilabel counter, PerkinElmer Life Sciences), equipped with detectors and filter sets for monitoring red and green fluorescence.
Quantitative bio film formation was calculated by dividing the fluorescence intensities of the stained biofilms for each well of the microtiter plate at an emission of 530 nm (green) by the fluorescence intensity at the emission of 630 nm (red). As 100% activity, the results obtained from wells only containing methanol as the control, instead of a test compound, was used. Under anaerobic conditions, Carolacton inhibited formation of biofilm from Streptococcus mutans at very low concentrations.
For a determination of bio film inhibition in relation to the control, the activity value for the Carolacton comprising test well was subtracted from the value obtained for the control. At concentrations of 2.5 and 0.25 μg/mL Carolacton, respectively, bio film formation by Streptococcus mutans wild-type strain was inhibited by about 60% under anaerobic conditions.

[4] = test system: Streptococcus mutans com E (−) mutant; assay: Inhibition of biofilm formation, quorum sensing negative mutant com E (-)
[5] = test system: Streptococcus mutans com D (−) mutant; assay: Inhibition of biofilm formation, quorum sensing negative mutant com D (-); conditions: read-out: Biofilm inhibition, com D (−) mutant
Procedure: as §1
(§2) Bacterial growth was monitored in the microtiter plate by optical density readings at 620 nm. Quantitative bio film formation was determined using the live/dead bacLight bacterial viability staining kit (available under catalogue number L13152 from Molecular Probes, Eugene, Oreg., USA). […] When used alone, the green fluorescing stain Cyto9 generally labels all bacteria in the population, whereas the red fluorescing stain propidium-iodide only penetrates bacteria having damaged membranes, causing a reduction in the Cyto9 stain fluorescence when both dyes are present. […]

[6] = test system: Streptococcus mutans com C (−) mutant; assay: Biofilm formation, quorum sensing negative mutant com C (-); conditions: same testing conditions
Procedure: as §1, §2

[7] = test system: Streptococcus mutans luxS mutant; assay: Inhibition of biofilm formation, luxS mutant; conditions: read-out: Biofilm inhibition, luxS mutant
Procedure: as §1, §2

[8] = test system: Streptococcus mutans planctonic cultures; assay: Planctonic growth (optical density readings at 620 nm); conditions: THB without additional sucrose
Procedure: as §1
Bacterial growth was monitored in the microtiter plate by optical density readings at 620 nm. Quantitative bio film formation was determined using the live/dead bacLight bacterial viability staining kit (available under catalogue number L13152 from Molecular Probes, Eugene, Oreg., USA). […] When used alone, the green fluorescing stain Cyto9 generally labels all bacteria in the population, whereas the red fluorescing stain propidium-iodide only penetrates bacteria having damaged membranes, causing a reduction in the Cyto9 stain fluorescence when both dyes are present.

[9] = Streptococcus mutans, aerobic, read-out: Biofilm inhibition (%) under aerobic conditions
[10] = Streptococcus mutans, anaerobic, read-out: Biofilm inhibition (%) under anaerobic conditions

For COC(CC(=O)O)C(C)C(=O)C(C)/C=C(\C)C1OC(=O)C(O)C(O)/C=C/C(C)CCCC1C (stereo not shown) [Carolacton], the “Concentration needed to inhibit E. coli” value [1] was “above 40 μg/mL”, the “Concentration with antibiotic activity against E. coli tolC” value [2] was 60 ng/mL and the inhibition at 0.025 µg/mL [3, 9] was 21%. It also gave an inhibition at 0.25 µg/mL [3, 9] of 21%, an inhibition at 2.5 µg/mL [3, 9] of 19% and an inhibition at 50 µg/mL [3, 9] of 1%. For the same molecule, the inhibition at 0.0025 µg/mL ([3]; Streptococcus mutans, anaerobic, Carolacton 0.0025 μg/mL, read-out: Biofilm inhibition (%) under anaerobic conditions) was -7%, the inhibition at 0.005 µg/mL ([3]; Streptococcus mutans, anaerobic, Carolacton 0.005 μg/mL, read-out: Biofilm inhibition (%) under anaerobic conditions) was 35% and the inhibition at 0.025 µg/mL [3, 10] was about 65%. It also gave an inhibition at 0.05 µg/mL ([3]; Streptococcus mutans, anaerobic, Carolacton 0.05 μg/mL, read-out: Biofilm inhibition (%) under anaerobic conditions) of 60%, an inhibition at 0.25 µg/mL [3, 10] of about 60% and an inhibition at 0.25 µg/mL ([3]; Streptococcus mutans, anaerobic, second experiment, read-out: Biofilm inhibition (%) under anaerobic conditions) of 77%. It also gave an inhibition at 2.5 µg/mL [3, 10] of about 60%, an inhibition at 25 µg/mL ([3]; Streptococcus mutans, anaerobic, Carolacton 25 μg/mL, read-out: Biofilm inhibition (%) under anaerobic conditions) of 66% and an inhibition at 50 µg/mL [3, 10] of 82%. For the same molecule, the “Lowest concentration achieving inhibition of biofilm generation” value ([3]; in vitro cultures) was 0.005 µg/mL, the “Biofilm inhibition, com E (−) mutant” value ([4]; Carolacton 2.5 μg/mL, same testing conditions) was 5% and the inhibition at 0.25 µg/mL ([4]; Streptococcus mutans, read-out: Biofilm inhibition, com E (−) mutant) was 12%. The inhibition at 0.25 µg/mL [5] was about 10%, the inhibition at 2.5 µg/mL [5] was about 10% and the “Induction of biofilm formation, com C (−) mutant” value ([6]; Carolacton 0.25 μg/mL) was 150%. The “Induction of biofilm formation, com C (−) mutant” value ([6]; Carolacton 2.5 μg/mL) was 200%, the inhibition at 2.5 µg/mL [7] was 59% and the inhibition at 40.25 µg/mL [7] was 46%. The “Influence on planctonic growth” value [8] was “only slightly influenced; also recorded: not influenced by Carolacton, or only marginally reduced”.
